Experimental data taken from BigSolDB 2.1.

Cc1cc(C)[nH]n1
solubility (mole fraction)
Settings | in acetone | in acetonitrile | in ethanol | in ethyl acetate | in isopropanol | in methanol | in n-butanol | in n-propanol | in toluene
283.15 K | 0.0625 | 0.0276 | 0.12 | 0.0508 | 0.115 | 0.107 | 0.133 | 0.123 | 0.0339
285.65 K | 0.0691 | 0.0312 | 0.127 | 0.0578 | 0.121 | 0.112 | 0.14 | 0.13 | 0.0382
288.15 K | 0.0757 | 0.0359 | 0.133 | 0.0663 | 0.128 | 0.118 | 0.149 | 0.137 | 0.045
290.65 K | 0.0838 | 0.0408 | 0.14 | 0.077 | 0.134 | 0.123 | 0.158 | 0.145 | 0.0517
293.15 K | 0.0935 | 0.0455 | 0.148 | 0.0881 | 0.142 | 0.131 | 0.166 | 0.152 | 0.0593
295.65 K | 0.105 | 0.0508 | 0.155 | 0.1 | 0.149 | 0.137 | 0.176 | 0.16 | 0.0677
298.15 K | 0.116 | 0.0568 | 0.163 | 0.113 | 0.157 | 0.143 | 0.187 | 0.167 | 0.0769
300.65 K | 0.129 | 0.0635 | 0.171 | 0.128 | 0.164 | 0.15 | 0.199 | 0.175 | 0.0863
303.15 K | 0.143 | 0.0722 | 0.179 | 0.144 | 0.171 | 0.158 | 0.211 | 0.184 | 0.0979
305.65 K | 0.16 | 0.0806 | 0.187 | 0.161 | 0.18 | 0.165 | 0.224 | 0.194 | 0.114
308.15 K | 0.175 | 0.0916 | 0.196 | 0.18 | 0.19 | 0.173 | 0.237 | 0.203 | 0.133
310.65 K | 0.194 | 0.102 | 0.205 | 0.199 | 0.199 | 0.18 | 0.251 | 0.213 | 0.151
313.15 K | 0.213 | 0.116 | 0.217 | 0.223 | 0.211 | 0.19 | 0.265 | 0.226 | 0.171
